The source made the active and inactive calls. The rule behind the calls is not given here.
What was measured:
Jejunum [1] = experiment: Inhibition of acetylcholine-induced contraction in Sprague-Dawley rat jejunum pretreated for 3 mins before acetylcholine challenge; format: functional, tissue-based
Jejunum [2] = experiment: Inhibition of acetylcholine-induced contraction in Sprague-Dawley rat jejunum at 1.2 pM pretreated for 3 mins before acetylcholine challenge; format: functional
Jejunum [3] = experiment: Inhibition of acetylcholine-induced contraction in Sprague-Dawley rat jejunum at 0.6 pM pretreated for 3 mins before acetylcholine challenge; format: functional
Jejunum [4] = experiment: Inhibition of Sprague-Dawley rat jejunum contraction at 0.6 to 6.0 pM; format: functional, tissue-based
L-type calcium channel = L-type calcium channel (Mus musculus, UniProt Q01815+Q02789+Q99246+Q9JIS7); experiment: Antagonist activity at voltage-dependent L-type calcium channel in mouse neurobalstoma-rat glioma NG 108-15 hybrid cells assessed as inhibition of KCl-induced increase in intracellular calcium level pretreated for 3 mins before KCl challenge; format: functional, cell-based
[5] = Cytotoxicity against human HCT16 cells; format: functional, cell-based
Jejunum [6] = experiment: Inhibition of acetylcholine-induced contraction in Sprague-Dawley rat jejunum at 6.0 pM pretreated for 3 mins before acetylcholine challenge; format: functional
Ephydatia fluviatilis = experiment: Inhibition of reaggregation of cells in Ephydatia fluviatilis; format: functional
Ileum = experiment: Inhibition of acetylcholine-induced contraction in guinea pig ileum; format: functional, tissue-based; conditions: Cavia porcellus
Poecilia reticulata = experiment: Toxicity against Lebistes reticulatus at 0.2 mg/l; format: organism-based; conditions: in vivo

| Compound | IC50 (L-type calcium channel) | Activity (Ephydatia fluviatilis) | Activity (Poecilia reticulata) | also measured |
| --- | --- | --- | --- | --- |
| CC[C@H]1C=CCC[C@]2(C[C@H]3CC[C@]4(O)[C@H](C(=O)OCCCCCCCCCCCCCCCC(=O)N(CCCN)C[C@@H](O)CCN)[C@@]5(CCC[C@@H](C)O5)NC(=[N+]34)N2)O1.[Cl-] [CRAMBESCIDIN 816 HYDROCHLORIDE] | 1.5 ×10⁻⁴ microM | 1.2 mM | Toxic | Activity (Jejunum [1]): Dose-dependent effect; inhibition at 1.2 pM (Jejunum [2]): 25%; inhibition at 600 fM (Jejunum [3]): 18%; Activity (Jejunum [4]): inactive; Activity (L-type calcium channel; mouse): Dose-dependent effect; IC50 [5]: 0.24 µg/mL; inhibition at 6 pM (Jejunum [6]): 30%; Activity (Ileum): Active |
| CCCCCCCCCCCC1N=C(N)N2CCCC2=C1C(=O)OCCCCNC(=N)N.Cl (stereo not drawn) [CRAMBINE A] | – | 2.3 mM | Toxic | – |
| CCCCCCCCCCC[C@@H]1N=C(N)N[C@]2(CCCO2)[C@@H]1C(=O)OCCCCCNC(=N)N.Cl [CRAMBINE B] | – | 2 mM | Toxic | – |
| CCCCCCCCCCCC1N=C(N)NC(CCCO)=C1C(=O)OCCCCCNC(=N)N.Cl (stereo not drawn) [CRAMBINE C1] | – | 2.1 ×10⁻² M | Toxic | – |
| COC(=O)C1=C(C)NC(C)=C(C(=O)OC)C1c1ccccc1[N+](=O)[O-] [NIFEDIPINE] | 1.2 µM | – | – | – |
